Results: article PMC12643354, “From Oxygen to Tellurium: The Impact of the Chalcogen on Nucleophilicities and Basicities of Isochalcogenourea Catalysts” (Angewandte Chemie (International Ed. in English), 2025)

Columns and labels:
Format in all cases: physicochemical
[1] = Kinetics of IChU reactions with reference electrophile (thq)2CH+ (stopped-flow photometry); details: E = −8.22, dichloromethane, 20 °C
Description: (§1) In order to systematically investigate the influence of the chalcogen atom on the nucleophilicity of DHPB‐derived IChUs (Ch = O, S, Se, and Te), we utilized Mayr's benzhydrylium methodology.^[ [107] ^]
(§2) In accordance with observations in previous studies on ITU reactivity,^[ [119] ^] mixing the strongly colored benzhydrylium tetrafluoroborates 18 with excess IChUs in dichloromethane gave rise to decolorization of the solutions due to the formation of isochalcogenouronium tetrafluoroborates 19, which are colourless (Figure 3a). […] To establish pseudo first‐order conditions and to secure a sufficient decay of the benzhydrylium's absorbance during the course of the reactions, the IChUs were employed at higher concentrations than the benzhydrylium ions. First‐order rate constants k obs (s^−1) were determined by fitting the mono‐exponential decay function in Equation (2) to the decreasing absorbance (A) of 18 during their reaction with the IChUs as exemplified for the reaction of ITeU3 with (ind)2CH^+ in Figure 3b. […]
(§3) First‐order rate constants k obs correlated linearly with the IChU concentration. Therefore, second‐order rate constants k 2 (L mol^−1 s^−1) were determined from the slope of the linear regression curves (Figure 3c ^[ [95] ^]). […]

[2] = Lewis basicity LB from equilibrium constants (photometric titrations) with benzhydrylium ions as reference Lewis acids; parameters: key: Mayr Lewis basicity scale; LB from K and reference LA via Eq. (3); details: in dichloromethane, 20 °C
Procedure: (a) Lewis basicity. Previously, the Mayr group established a series of benzhydrylium ions as C‐centered Lewis acid references to construct a Lewis basicity scale in dichloromethane. Substituting experimentally determined equilibrium constants K (at 20 °C) and reported Lewis acidities LA for the benzhydrylium ions (Figure 7) in Equation (3) enables one to calculate the Lewis basicity (LB) of a Lewis base.^[ [121], [127] ^] (3) lgK(20^∘C)=LA+LB
The reversibility of the formation of adducts 19 (Equation (4)), which was also apparent in the kinetics by significant positive intercepts in several of the k obs versus [IChU] plots (Supporting Information), provided the opportunity to probe the thermodynamics of the C‐N bond‐forming reactions of IChUs with benzhydrylium ions as the reference Lewis acids in more detail.^[ [95] ^] (4) IChU+Ar2CH^+(18)⇌Ar2CH-IChU^+(19)
By assuming the validity of the Beer–Lambert law for dilute solutions, equilibrium constants K (L mol^−1) were determined in photometric titrations according to Equation (5) from the initial absorbance (A 0) of the benzhydrylium ions 18 and the absorbance at equilibrium (A, Equation 5), that is, after addition of a certain amount of an IChU.^[ [109], [110], [111], [112], [113], [114], [115], [119] ^] (5) K=[19]/[18]IChU=A0−A/AIChU

[3] = Kinetics of IChU reactions with reference electrophile (dma)2CH+ (stopped-flow photometry); details: E = −7.02, dichloromethane, 20 °C
Description: as §1
In accordance with observations in previous studies on ITU reactivity,^[ [119] ^] mixing the strongly colored benzhydrylium tetrafluoroborates 18 with excess IChUs in dichloromethane gave rise to decolorization of the solutions due to the formation of isochalcogenouronium tetrafluoroborates 19, which are colourless (Figure 3a). Owing to reversibility of the C─N bond formation, generated adducts 19 from the IChU/benzhydrylium reactions were not isolated but characterized by ^1H, ^13C, and ^77Se NMR spectroscopy (the ^77Se nucleus is remarkably sensitive with observed changes of around 100 ppm when comparing the ^77Se resonances of free ISeUs with those of the corresponding selenouronium tetrafluoroborates^[ [95] ^]). The kinetics of the IChU reactions with the reference electrophiles 18 were traced by photometric methods using standard stopped‐flow techniques. To establish pseudo first‐order conditions and to secure a sufficient decay of the benzhydrylium's absorbance during the course of the reactions, the IChUs were employed at higher concentrations than the benzhydrylium ions. First‐order rate constants k obs (s^−1) were determined by fitting the mono‐exponential decay function in Equation (2) to the decreasing absorbance (A) of 18 during their reaction with the IChUs as exemplified for the reaction of ITeU3 with (ind)2CH^+ in Figure 3b. (2) A=A0e^−kobst+C […]
First‐order rate constants k obs correlated linearly with the IChU concentration. Therefore, second‐order rate constants k 2 (L mol^−1 s^−1) were determined from the slope of the linear regression curves (Figure 3c ^[ [95] ^]). Second‐order rate constants k 2 for all kinetically investigated reactions of DHPB‐derived IChUs (Ch = O, S, Se, and Te) with benzhydrylium ions 18 are gathered in Table 1.
Apart from CH2Cl2 also MeCN and THF are solvents that are commonly employed in reactions involving isochalcogenoureas. […]

[4] = Kinetics of IChU reactions with reference electrophile (lil)2CH+ (stopped-flow photometry); details: E = −10.04, dichloromethane, 20 °C
Description: as §1, §2, §3

[5] = Kinetics of IChU reactions with reference electrophile (mor)2CH+ (stopped-flow photometry); details: E = −5.53, dichloromethane, 20 °C
Description: as §1, §2, §3

[6] = Kinetics of IChU reactions with reference electrophile (dpa)2CH+ (stopped-flow photometry); details: E = −4.72, dichloromethane, 20 °C
Description: as §1, §2, §3

Row | SMILES | Second-order rate constant k2 exptl [1] | Lewis basicity LB [2] | Second-order rate constant k2 exptl [3] | Second-order rate constant k2 exptl [4] | Second-order rate constant k2 exptl [5] | Second-order rate constant k2 exptl [6]
1 | c1ccc2c(c1)[Se]C1=NCCCN12 [ISeU3, SeDHPB] | 38100 M⁻¹ s⁻¹ | 15.54 | 194000 M⁻¹ s⁻¹ | 1980 M⁻¹ s⁻¹ |  | 
2 | c1ccc2c(c1)OC1=NCCCN12 [IU3, ODHPB] |  | 13.66 | 27900 M⁻¹ s⁻¹ |  | 185000 M⁻¹ s⁻¹ | 896000 M⁻¹ s⁻¹
